Measured values as given in US20250230138A1, “COMPOUNDS HAVING A T-STRUCTURE FORMED BY AT LEAST FOUR CYCLES FOR USE IN THE TREATMENT OF CANCER AND OTHER INDICATIONS” (TheRas, Inc., priority 2022, published 2025).
Read-outs that look alike come from different tables or passages of the source.

What was measured:
[1] = target: Cys242 in human PIK3CA (157-299) (Homo sapiens (Human), UniProt P42336); assay: Covalent modification assay using MALDI-TOF MS; type: biochemical; settings: 4 h reaction time point
Procedure, shortened: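 PIK3CA (157-299) at 3.33 μM or 1 μM in 20 mM HEPES, 150 mM NaCl, 2 mM MgCl2, pH 7.3 was incubated with compound (from 10 mM DMSO stocks) in the dark at room temperature for 15 min, 30 min, 2 h or 4 h. Linear-mode MALDI-TOF peak heights gave percent modification.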

pAKT in BT474 cells = assay: Cell-based pAKT HTRF assay in BT474 cells; settings: BT474 cells, 4 hr incubation, read-out: pAKT inhibition IC50 in BT474 cells
Procedure, shortened: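 The HTRF signal (excitation 320 nm, emission 615 nm) came from d2/Eu Cryptate antibodies added to lysates and incubated 4–24 h at room temperature. Those lysates were taken from cells treated for 4 hr with compound, top concentration 3 μM, in 0.25% DMSO.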

[2] = 1 μM protein target, 1:5 protein to compound ratio (compounds 853-1279)
[3] = 3.33 μM protein target, 1:7.5 protein to compound ratio (compounds 1-852)

Chain of Cys242 in human PIK3CA (157-299) (P42336 157-299): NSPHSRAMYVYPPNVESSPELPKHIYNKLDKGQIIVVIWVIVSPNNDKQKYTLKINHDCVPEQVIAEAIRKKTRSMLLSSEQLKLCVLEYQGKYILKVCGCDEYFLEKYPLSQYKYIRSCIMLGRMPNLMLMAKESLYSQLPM

Structure (SMILES)	% of modification [1, 2]	IC50 (pAKT in BT474 cells; Compounds 1000-1279)	% of modification [1, 3]	IC50 (pAKT in BT474 cells; Compounds 10-999)
C=CC(=O)N1CCn2nc(-c3nc(N4Cc5cn(C)nc5C4)c4ccsc4c3-c3c(F)cc(F)cc3OCCOC)cc2C1C (stereo not shown) [Compound 1230]	A (percent of modification of PIK3CA protein ≥75%)	0.1 to 1 µM		
C=C(F)C(=O)N1Cc2cc(-c3nc(-c4ccc5c(c4)CCN(C)C5)c4ccsc4c3-c3c(F)cc(F)cc3OC[C@@H](C)O)nn2C[C@H]1C [Compound 575]			D (percent of modification <25%)	0.1 to 1 µM
C=CC(=O)N1CCn2nc(-c3nc(-c4ccc5cnn(C)c5c4)c4ccsc4c3-c3c(F)cc(F)cc3OCC(C)O)cc2C1C (stereo not shown) [Compound 677]			A (percent of modification of PIK3CA protein ≥75%)	< 0.1 µM
C=CC(=O)N1CCn2nc(-c3nc(-c4cnn(C)c4)c4ccsc4c3-c3ccc(F)cc3OC(F)F)nc2C1 [Compound 216]			A (percent of modification of PIK3CA protein ≥75%)	0.1 to 1 µM
C=CC(=O)N1CCn2nc(-c3nc(-c4ccc(CC(=O)N5CC(F)(F)C5)cc4)c4ccsc4c3-c3c(F)cc(F)cc3OCCOC)cc2C1C (stereo not shown) [Compound 1102]	A (percent of modification of PIK3CA protein ≥75%)	< 0.1 µM		
C=CC(=O)N1CCn2nc(-c3nc(-c4ccc5c(c4)CCN(C(C)C)C5)c4ccsc4c3-c3ccc(F)cc3OCC3CCNC(=O)C3)cc2C1 (stereo not shown) [Compound 254]			A (percent of modification of PIK3CA protein ≥75%)	< 0.1 µM
C=CC(=O)N1Cc2cc(-c3nc(-c4ccnnc4)c4ccsc4c3-c3c(F)cc(F)cc3OCCOC)nn2CC1C (stereo not shown) [Compound 948]	A (percent of modification of PIK3CA protein ≥75%)			< 0.1 µM
C=CC(=O)N1CCc2ncc(-c3nc(-c4cn(C)cn4)c4ccsc4c3-c3c(F)cc(F)cc3OC(C)C)cc2C1 [Compound 421]			A (percent of modification of PIK3CA protein ≥75%)	< 0.1 µM
C=CC(=O)N1CCn2nc(-c3nc(-c4ccc5c(cnn5C)c4)c4ccsc4c3-c3c(F)cc(F)cc3OCCOC(F)F)cc2C1C (stereo not shown) [Compound 1234]	A (percent of modification of PIK3CA protein ≥75%)	< 0.1 µM		
C=CC(=O)N1CCn2nc(-c3nc(-c4ccc([C@H](NC)C(F)(F)F)cc4)c4ccsc4c3-c3c(F)cc(F)cc3OCCOC)cc2[C@H]1C (single isomer, unassigned) [Compound 1149]	A (percent of modification of PIK3CA protein ≥75%)	< 0.1 µM		
C=CC(=O)N1CCn2nc(-c3nc(-c4ccc5c(c4)C(=O)NC5)c4ccsc4c3-c3c(F)cc(F)cc3OC)cc2C1C (stereo not shown) [Compound 1117]	A (percent of modification of PIK3CA protein ≥75%)	< 0.1 µM		
C=CC(=O)N1CCn2nc(-c3nc(-c4ccc5cnn(C)c(=O)c5c4)c4ccsc4c3-c3c(F)cc(F)cc3OCCO)cc2[C@H]1C [Compound 899]	A (percent of modification of PIK3CA protein ≥75%)			< 0.1 µM
C=CC(=O)N1CCc2ccc(-c3nc(-c4ccc5c(c4)CNC5=O)c4ccsc4c3-c3c(F)cc(F)cc3OCCO)cc2C1 (single isomer, unassigned) [Compound 962]	A (percent of modification of PIK3CA protein ≥75%)			< 0.1 µM
C=CC(=O)N1CCc2nc(-c3nc(-c4ccc5c(c4)CCN(C)C5)c4ccsc4c3-c3ccc(F)cc3OCCOC)sc2C1 [Compound 107]			A (percent of modification of PIK3CA protein ≥75%)	< 0.1 µM
C=CC(=O)N1Cc2cc(-c3nc(-c4ccc5c(c4)CN(C)C5=O)c4ccsc4c3-c3c(F)cc(F)cc3OCCO)nn2CC1C (stereo not shown) [Compound 494]			A (percent of modification of PIK3CA protein ≥75%)	< 0.1 µM
C=C(F)C(=O)N1Cc2cc(-c3nc(-c4ccc5c(c4)CCN(C)C5)c4ccsc4c3-c3c(F)cc(F)cc3OC(C)C)nn2CC1C (single isomer, unassigned) [Compound 501]			D (percent of modification <25%)	0.1 to 1 µM

Structure (SMILES)	% of modification [1, 2]	IC50 (pAKT in BT474 cells; Compounds 1000-1279)	% of modification [1, 3]	IC50 (pAKT in BT474 cells; Compounds 10-999)
C=CC(=O)N1CCn2nc(-c3nc(-c4ccc5c(c4)CCN(C)C5)c4ccsc4c3-c3c(F)cc(F)cc3OC(C)C)cc2[C@H]1C [Compound 507]			A (percent of modification of PIK3CA protein ≥75%)	< 0.1 µM
C=CC(=O)N1CCc2ccc(-c3nc(-c4ccc5c(c4)CNC(=O)C54CC4)c4ccsc4c3-c3c(F)cc(F)cc3OCCOC)cc2C1 [Compound 1191]	A (percent of modification of PIK3CA protein ≥75%)	< 0.1 µM		
C=CC(=O)N1CCn2nc(-c3nc(-c4ccc5ncn(C)c(=O)c5c4)c4ccsc4c3-c3c(F)cc(F)cc3OCCOC)cc2C1C (stereo not shown) [Compound 915]	A (percent of modification of PIK3CA protein ≥75%)			< 0.1 µM
C=CC(=O)N1CC[C@H](n2cc(-c3nc(-c4ccc5c(c4)CCN(C)C5)c4ccsc4c3-c3ccc(F)cc3OCCOC)cn2)C1 [Compound 67]			A (percent of modification of PIK3CA protein ≥75%)	< 0.1 µM
C=CC(=O)N1CCc2ncc(-c3nc(-c4ccc5c(c4)CNC5=O)c4ccsc4c3-c3c(F)cc(F)cc3OC(C)C)cc2C1 [Compound 326]			A (percent of modification of PIK3CA protein ≥75%)	< 0.1 µM
C=CC(=O)N1CCc2nc(-c3nc(-c4cnn(C)c4)c4ccsc4c3-c3c(F)cc(F)cc3OCCOC)sc2C1 [Compound 363]			A (percent of modification of PIK3CA protein ≥75%)	< 0.1 µM
C=CC(=O)N1CCn2nc(-c3nc(-c4ccnc(N)c4)c4ccsc4c3-c3ccc(F)cc3OCC3CCNC(=O)C3)cc2C1 (stereo not shown) [Compound 249]			A (percent of modification of PIK3CA protein ≥75%)	< 0.1 µM
C=CC(=O)N1CCn2nc(-c3nc(-c4ccc5c(cnn5C)c4)c4ccsc4c3-c3c(F)cc(F)cc3OCCO)cc2[C@@H]1C [Compound 663, 1-((S)-2-((S)-7-(2,4-difluoro-6-(2-hydroxyethoxy)phenyl)-4-(1-methyl-1H-indazol-5-yl)thieno[3,2-c]pyridin-6-yl)-4-methyl-6,7-dihydropyrazolo[1,5-a]pyrazin-5(4H)-yl)prop-2-en-1-one]			A (percent of modification of PIK3CA protein ≥75%)	< 0.1 µM
C=CC(=O)N1Cc2cc(-c3nc(-c4ccc5c(cnn5C)c4)c4ccsc4c3-c3c(F)cc(F)cc3OCC(C)(C)O)nn2[C@@H](C)C1 [Compound 848]			A (percent of modification of PIK3CA protein ≥75%)	< 0.1 µM
C=CC(=O)N1CC(n2cc(-c3nc(C4CCN(S(C)(=O)=O)CC4)c4ccsc4c3-c3ccc(F)cc3OC)cn2)C1 [Compound 296]			B (50%<percent of modification <75%)	1 to 3 µM
C=CC(=O)N1CCn2nc(-c3nc(-c4cnn(C5CN(C)C5)c4)c4ccsc4c3-c3c(F)cc(F)cc3OCCOC)cc2C1C (stereo not shown) [Compound 1029]	A (percent of modification of PIK3CA protein ≥75%)	< 0.1 µM		
C=CC(=O)N1CCn2nc(-c3nc(N4CC5(CCNC(=O)C5)C4)c4ccsc4c3-c3c(F)cc(F)cc3OCCOC)cc2C1C (stereo not shown) [Compound 1088]	B (50%<percent of modification <75%)	0.1 to 1 µM		
C=CC(=O)N1Cc2cc(-c3nc(-c4cnn(C)c4)c4ccsc4c3-c3c(F)cc(F)cc3OC(C)C)nn2C[C@H]1C [Compound 456, 1-((R)-2-((R)-7-(2,4-difluoro-6-isopropoxyphenyl)-4-(1-methyl-1H-pyrazol-4-yl)thieno[3,2-c]pyridin-6-yl)-6-methyl-6,7-dihydropyrazolo[1,5-a]pyrazin-5(4H)-yl)prop-2-en-1-one]			D (percent of modification <25%)	> 3 µM
C=CC(=O)N1CCn2nc(-c3nc(-c4ccc5ncn(C)c(=O)c5c4)c4ccsc4c3-c3c(F)cc(F)cc3OCCO)cc2C1C (stereo not shown) [Compound 900]	A (percent of modification of PIK3CA protein ≥75%)			< 0.1 µM
C=CC(=O)N1CCn2nc(-c3nc(-c4ccc5c(c4)[C@H](O)CC5)c4ccsc4c3-c3ccc(F)cc3OCCOC)cc2C1 [Compound 257]			A (percent of modification of PIK3CA protein ≥75%)	< 0.1 µM
C=CC(=O)N1CCc2nc(-c3nc(-c4ccc5c(cnn5C)c4)c4ccsc4c3-c3c(F)cc(F)cc3OCCO)sc2C1 [Compound 1032]	D (percent of modification <25%)	> 1 µM		
